Measured values from patent US11191840B2, “Compositions and methods relating to salts of specialized pro-resolving mediators” (Thetis Pharmaceuticals LLC, priority 2017, dated 2021).
Structures can show the parent of a compound that is named as a salt. Where two headings read alike, the source gives them in different places.

Assays:
[1] = system: two-cycle DSS colitis model; assay: Two-cycle DSS colitis model, concomitant RvE1-Mg-di-lysinate and 5-ASA; assay type: in vivo, mouse; conditions: once-daily, RvE1-Mg-Lys 1.5 ug/d, 5-ASA 625 ug/d, alone or combined; for Colon Length / Normalized Spleen Weight / Total Histopath Score: at sacrifice; for Disease Activity Index: terminal (Day 27)
Description: (§1) In the study described in Example 17, a sub-chronic model was used to induce colitis in 8-week old C57B16/J mice by two cycles of DSS separated by a 10-day recovery period. Once-daily RvE1-Mg-di-lysinate treatment (15 ug/day) was initiated on Day 20, after DSS-induced colitis was established, and continued for 7 days via oral gavage, with mice sacrificed at the end of Day 27. This sub-chronic, 2-cycle DSS protocol was used to induce inflammation with an immunological profile that better models human IBD than a single cycle of DSS. Oh S Y et al. Comparison of experimental mouse models of inflammatory bowel disease. Int J Mol Med. 2014; 33(2):333-40. This experimental system also provides a representative model for treating patients with active disease where the therapeutic objective is induction of remission. This is important in human IBD because most patients have recurring disease flares. In addition, this study compared RvE1-Mg-di-lysinate to 5-aminosalicylate (5-ASA), which is used as standard-of-care first-line therapy for induction and maintenance of remission in ulcerative colitis and also for certain phenotypes of Crohn's Disease.
(§2) Disease activity was assessed daily using the same Disease Activity Index (DAI) that was used in Example 16. Following sacrifice, colons were excised, flushed with ice-cold PBS, their lengths were measured. Subsequently, H&E-stained colon tissue sections from each animal were also scored using an established scoring system of histopathological disease activity. See Dieleman L A, Palmen M J, Akol H, et al. Chronic experimental colitis induced by dextran sulphate sodium (DSS) is characterized by Th1 and Th2 cytokines. Clin Exp Immunol. 1998; 114(3):385-91.
In this study, we again used the two-cycle DSS colitis model described above, but with once-daily concomitant therapy of RvE1-Mg-di-lysinate (1.5 ug/day) and 5-ASA (625 ug/day). This co-therapy model was used because many patients that would be candidates for RvE1-Mg-di-lysinate treatment will likely continue taking 5-ASA, as this is common clinical practice even when patient are not well controlled on 5-ASA monotherapy.

[2] = Chemical stability against degradation, HPLC, solid in open test tubes at room temperature; assay type: physicochemical; conditions: open test tube, room temperature 68-72 F, relative humidity 20-40%
Description: The stability of selected SPMs and their ionic derivatives based on Formulas I and IV was evaluated. The parent SPM and its solid ionic derivative were place in open test tubes and maintained at room temperature between 68-72 F and relative humidity between 20-40% for 6 or 8 weeks. […] Briefly, HPLC analysis was performed on a PFP column (Poroshell 120, PFP, 4.6×150 mm, […], Agilent), mounted on a Gilson HPLC system equipped with an ELS detector. The mobile phase consisted of a gradient between solution A, water, and solution B, acetonitrile, both containing 0.1% trifluoroacetic acid. The gradient program was 30-80% with respect to solution B. The flow rate was 0.5 mL/min. The appearance of new HPLC peaks as compared to the baseline HPLC tracing at the initial time point is indicative of decomposition products and the lack of stability. The absence of such new HPLC peaks the subsequent time points is indicative of stability.

DSS-induced colitis = assay: Sub-chronic two-cycle DSS colitis model, treatment from Day 20; assay type: in vivo, mouse; conditions: for Colon Length / Disease Activity Index / Normalized Spleen Weight: Table 7, two cycles of DSS, once-daily oral gavage Day 20-27, 15 ug/day; for Reduction in DAI relative to Disease Control: 15 ug/day oral from Day 20
Description: as §1, §2

[3] = system: dextran sulfate sodium (DSS) mouse model of colitis; assay: Dextran sulfate sodium (DSS) mouse model of colitis, acute, 7 days DSS; assay type: in vivo; conditions: RvE1-Mg-di-lysinate 15 ug/day or equimolar RvE1; for Colon Length / Normalized Spleen Weight: at sacrifice after 7 days DSS, once-daily oral gavage; for Disease Activity Index: study day 7, 2% DSS in drinking water 7 days, once-daily oral gavage from day 0
Description: A representative compound of Formula IV, RvE1-Mg-di-lysinate, was tested for efficacy in the dextran sulfate sodium (DSS) mouse model of colitis. In this model system, DSS exposure disrupts intestinal barrier function, stimulating local inflammation and inducing a colitis phenotype that mimics the clinical and histopathological features of IBD. See e.g., Laroui H et al. Dextran sodium sulfate (DSS) induces colitis in mice by forming nano-lipocomplexes with medium-chain-length fatty acids in the colon. PLoS ONE. 2012; 7 (3):e32084.
In the present study, 8-week old male C57Bl/6J mice were randomized by weight to three experimental groups and administered 2% DSS (w/v) in drinking water for 7 days. Beginning on study day 0, animals were administered either RvE-Mg-di-lysinate (RvE-Mg-Lys), an equimolar dose of RvE1, or vehicle via once-daily oral gavage. Disease activity was assessed daily using an established Disease Activity Index (DAI). See e.g., Morin C, Blier P U, Fortin S. MAG-EPA reduces severity of DSS-induced colitis in rats. Am J Physiol Gastrointest Liver Physiol. 2016; 310 (10):G808-21. All animals were sacrificed after 7 days of DSS exposure and colons and spleens were harvested. Gross morphological markers of disease activity, including colon length and normalized spleen weight (mg per g body weight) were assessed.
The model system described in Example 16 represents an acute model of human IBD wherein once daily RvE1-Mg-di-lysinate treatment at a dose of 15 ug/day was used in a prophylactic mode to mitigate the onset of intestinal and systemic inflammation induced by administration of DSS. This is relevant to patients in need of maintenance therapy to prevent the recurrence of active disease.

[4] = Pharmacokinetic analysis of blood and colon tissue after intracolonic administration; assay type: in vivo; conditions: mouse, 15 ug/day; for Tmax: read-out: RvE1 Tmax (converted)
From the text: Pharmacokinetic analysis of blood and colon tissue samples were collected in the course of the intracolonic efficacy study and these confirmed that intracolonic administration of RvE1-Mg-di-lysinate is associated with predominantly local RvE1 exposure and minimal uptake into circulation.

[5] = system: two-cycle DSS colitis model; assay: Two-cycle DSS colitis model, intracolonic versus oral administration; assay type: in vivo, mouse; conditions: 15 ug/d, Day 20-27
From the text: To further test the biological effects on disease activity of luminal absorption of RvE1 administered orally in the form of RvE1-Mg-di-lysinate, we compared direct intracolonic administration (similar to an enema) with oral administration. Whereas we had previously established that oral administration of RvE1-Mg-di-lysinate results in systemic and local colonic exposure to RvE1, intracolonic administration results in predominantly local exposure. We again used the two-cycle DSS colitis model described above, with treatment initiated on Day 20 and continued for 7 days, with mice sacrificed at the end of Day 27. To facilitate intracolonic drug delivery, mice were anesthetized via exposure to 2-4% isoflurane gas. Intracolonic administration of RvE1-Mg-di-lysinate or vehicle was performed, with all animals inverted for 5 minutes following dose administration. Intracolonic administration of RvE1-Mg-di-lysinate was associated with a significant reduction in DAI (P<0.01), colon length (P<0.05), spleen weight (P<0.05) and histopathological disease activity (P<0.05).

[6] = Single oral dose pharmacokinetics: RvE1 exposure in blood plasma, small intestine tissue and colon tissue; assay type: in vivo, mouse; conditions: for Timing of RvE1 Cmax: oral administration; for Cmax / Tmax / AUC(0-t): male, C57BL6/J, mouse, single oral dose 10 mg/kg RvE1-Mg-di-lysinate; for AUC(0-t): read-out: AUC0-8 of RvE1
Description: To establish the oral pharmacokinetics (PK) of RvE1-Mg-di-lysinate, a study was conducted to investigate RvE1 exposure in blood plasma, small intestine tissue, and colon tissue following a single oral dose of RvE1-Mg-di-lysinate (10 mg/kg) in 8-week old male C57BL6/J mice at various time points up to 8 hours post-dose. RvE1 levels were quantified in all tissue samples by HPLC-MS/MS. Pharmacokinetic curves for all tissue compartments are shown in FIG. 5 and a summary of pharmacokinetic metrics is shown in Table 9.

[7] = at sacrifice Day 27, 15 ug/day oral, P<0.05
[8] = small intestine tissue, Small Intestine

Nc1ccc(O)c(C(=O)O)c1 [Compound 5-ASA, 5-aminosalicylate, reference compound]
Colon Length [1]: 78.7 ± 6.7 mm
Normalized Spleen Weight [1]: 4.1 ± 1.3 mg/g BW
Total Histopath Score [1]: 16 ± 3.8
Disease Activity Index [1]: 3.3 ± 0.8

CC[C@@H](O)/C=C/C=C\C[C@@H](O)/C=C/C=C/C=C\[C@@H](O)CCCC(=O)O [RvE1 Ca di-lysinate, bis(RvE1) calcium L-lysinate salt]
Degradation products by HPLC (chemical stability) ([2]; 6 weeks): No additional peaks corresponding to degradation products were observed

CC[C@@H](O)/C=C/C=C\C[C@@H](O)/C=C/C=C/C=C\[C@@H](O)CCCC(=O)O [RvE1 lys lys, RvE1 (L,L)-lysyllysine salt]
Degradation products by HPLC (chemical stability) ([2]; 8 weeks): without degradation products

CC[C@@H](O)/C=C/C=C\C[C@@H](O)/C=C/C=C/C=C\[C@@H](O)CCCC(=O)O [RvE1, (5S,6Z,8E,10E,12R,14Z,16E,18R)-5,12,18-trihydroxyicosa-6,8,10,14,16-pentaenoic acid, reference compound]
Colon Length (DSS-induced colitis): 75.2 ± 7.6 mm
Disease Activity Index (DSS-induced colitis): 5.6 ± 1.1
Normalized Spleen Weight (DSS-induced colitis): 3.9 ± 0.7 mg/g BW
Degradation products by HPLC (chemical stability) ([2]; 8 weeks): extensively degraded
Colon Length [3]: 75.2 ± 7.6 mm
Normalized Spleen Weight [3]: 3.9 ± 0.7 mg/g BW
Disease Activity Index [3]: 5.6 ± 1.1

CC[C@@H](O)/C=C/C=C\C[C@@H](O)/C=C/C=C/C=C\[C@@H](O)CCCC(=O)O [RvE1-Mg-Lys, bis(RvE1) magnesium L-lysinate salt]
Cmax ([4]; blood, read-out: Blood Cmax of RvE1): 0.48 ng/mL
Tmax ([4]; blood): 15 min
Cmax ([4]; colon tissue, read-out: Colon Cmax of RvE1): 2800 ng/g
Tmax ([4]; colon): 15 min
Reduction in DAI relative to Disease Control (DSS-induced colitis; Day 21, P<0.01): 24%
Reduction in DAI relative to Disease Control (DSS-induced colitis; Day 23, P<0.05): 18%
Colon Length (DSS-induced colitis): 77.1 ± 7.8 mm
Disease Activity Index (DSS-induced colitis): 4.8 ± 1.3
Normalized Spleen Weight (DSS-induced colitis): 3.6 ± 0.9 mg/g BW
Histopathologic disease activity vs Disease Control (in words) (DSS-induced colitis; at sacrifice Day 27, 15 ug/day oral): non-significant reduction
Colon length vs Disease Control (in words) (DSS-induced colitis; [7]): statistically significant increase
Normalized spleen weight vs Disease Control (in words) (DSS-induced colitis; [7]): statistically significant reduction
DAI relative to vehicle control (in words) (DSS-induced colitis; study day 27, 15 ug/day oral Day 20-27): statistically significant reduction
Colon Length ([5]; Intracolonic): 83.1 ± 5.4 mm
Disease Activity Index ([5]; Intracolonic): 2.6 ± 1.9
Normalized Spleen Weight ([5]; Intracolonic): 4.3 ± 0.9 mg/g BW
Total Histopath Score ([5]; Intracolonic): 15 ± 2.7
Colon Length ([5]; Oral): 82.7 ± 5.6 mm
Disease Activity Index ([5]; Oral): 2.6 ± 1.8
Normalized Spleen Weight ([5]; Oral): 4.4 ± 1.4 mg/g BW
Total Histopath Score ([5]; Oral): 15.9 ± 6.0
Share of total RvE1 detected in colon tissue contributed by the increase at the time of blood plasma Cmax ([6]; colon tissue, 15 minutes after oral dose): less than 2%
Timing of RvE1 Cmax ([6]; colon): 4 h
Cmax ([6]; colon tissue, Colon): 19.8 ng/mL
Tmax ([6]; colon tissue, Colon): 240 min
AUC(0-t) ([6]; colon tissue, Colon): 72.9 ng·h/mL
Cmax ([6]; plasma, Blood): 471 ng/mL
Tmax ([6]; plasma, Blood): 15 min
AUC(0-t) ([6]; plasma, Blood): 128 ng·h/mL
Cmax [6, 8]: 346 ng/mL
Tmax [6, 8]: 120 min
AUC(0-t) [6, 8]: 533 ng·h/mL
Timing of RvE1 Cmax ([6]; small intestine): 2 h
Colon Length [1]: 77.3 ± 3 mm
Normalized Spleen Weight [1]: 6.6 ± 0.5 mg/g BW
Total Histopath Score [1]: 17.6 ± 2.7
Disease Activity Index [1]: 3.7 ± 1.6
Degradation products by HPLC (chemical stability) ([2]; 8 weeks, listed as RvE1 Mg di-lysinate): did not exhibit any degradation products
Colon Length [3]: 77.1 ± 7.8 mm
Normalized Spleen Weight [3]: 3.6 ± 0.9 mg/g BW
Disease Activity Index [3]: 4.8 ± 1.3
